In US9387231B2, “Compositions comprising a Brd4 antagonist and methods for the treatment of HIV” (THE CHILDREN'S HOSPITAL OF PHILADELPHIA, priority 2011, dated 2016):

Tests used:
Assay type in all cases: cell-based
[1] = system: RNA polymerase II binding to the HIV LTR; experiment: Chromatin immunoprecipitation (ChIP) of HIV LTR DNA, RNA polymerase II; details: CEMss LTR-GFP cells infected with HIV NL4-3, days 3 to 5, compared to JQ1(−), p<0.001
Procedure: (§1) FIGS. 7A and 7B show the fold increase in the binding of IgG, RNA polymerase II, or Cdk9 to the HIV LTR in the presence of JQ1(+) or JQ1(−) for early (FIG. 7A) and late (FIG. 7B) HIV-1 transcript. ***p<0.001.
(§2) To further investigate the mechanism of JQ1(+) reactivation of HIV transcription in latently infected T-cells, the binding of RNA polymerase II (PoI II) and p-TEFb (Cdk9/Cyclin T) to the promoter region of HIV LTR was measured using chromatin immunoprecipitation (ChIP). A CEMss reporter cell line stably transfected with GFP under the control of the HIV LTR promoter was used. CEMss LTR-GFP cells were infected with HIV NL4-3 in the presence of JQ1(+) or JQ1(−). At days 3 to 5 of infection, cells were collected and sheared, and formaldehyde cross-linked chromatin extracts were immunoprecipitated with antibodies specific for IgG, RNA polymerase II, or Cdk9. The abundance of HIV LTR DNA in immunoprecipitates was assessed by qPCR with two sets of primers specific for early or late regions of the HIV LTR.

[2] = system: HIV-1 LTR promoter; experiment: Activation of the HIV LTR in CEMss LTR-GFP reporter cells (GFP by flow cytometry)
Procedure: CEMss LTR-GFP cells were infected with NL43 and cultured in the presence of the BET antagonists JQ1(+) (1 μM) or the control enantiomer JQ1(−). GFP expression in cells was examined by flow cytometry. A representative of three experiments is shown. FIG. 2B provides a graph showing GFP expression in cells when cultured with different amounts of JQ1, as determined by flow cytometry. 0.25 μM of JQ1(+) was sufficient to dramatically increase the expression of GFP in NL43 infected CEMss LTR-GFP cells. FIGS. 2C and 2D show percentage of GFP expression (FIG. 2C) and mean fluorescence of GFP (MFI; FIG. 2D) in CEMss LTR-GFP cells cultured in the presence of JQ1(+) or JQ1(−) (1 μM), and different amount of HIV-1 Tat. FIG. 2E provides dot plots of CEMss LTR-GFP cells were cultured with increasing amounts of HIV Tat (0, 8, 16 or 32 μg/ml) in the presence of JQ1(+) or JQ1(−) (1 μM) for 1 day. Non-underlined numbers indicate percentage of GFP and underlined numbers indicate mean fluorescence of GFP (MFI).
(§3) GFP expression was measured by flow cytometry. FIGS. 3B and 3C shown the percentage of cells positive for GFP (FIG. 3B) and the mean MFI of GFP (FIG. 3C) in latently infected cell lines, J-Lat clones 82, A72, A7, A2, and A1, at 16 hours after TNFα or PHA was added in the cultures in the presence of JQ1(+) or JQ1(−). […] GFP expression in cells was measured by flow cytometry and is indicated as percent of GFP+ cells in gated live cell populations. An average of 5 experiments is shown. * p<0.05, ** p<0.01, *** p<0.001. […] Average of 3 experiments is shown. * p<0.05. For FIG. 3F, J-Lat A2 and A72 cells were reactivated with TNFα (20 ng/ml) or HIV Tat protein (50 μg/ml) in the presence of JQ1(+) or JQ1(−) for 16-18 hours, and GFP expression in cells was measured by flow cytometry. One representative experiment is shown. In each dot plot, non-underlined numbers indicate percentage of GFP+ cells and underlined numbers indicate mean fluorescence of GFP (MFI).
BET antagonists also drive activation of the HIV LTR. Specifically, the effects of JQ1 on transcription from the HIV LTR were tested. CEMss LTR-GFP cells (a reporter cell line stably transfected with GFP under the control of the HIV-1 LTR promoter) were infected with NL43 and cultured in the presence of BET antagonists or controls. GFP expression was measured at days 0, 1, 2, 3, and 6 post-infection. GFP expression was higher in the presence of the BET inhibitor (JQ1) compared to controls (FIG. 2A). Further, by varying the amount of JQ1, it was determined that 0.25 μM of JQ1(+) was sufficient to dramatically increase Tat-driven HIV-1 transcription (FIG. 2B). CEMss LTR-GFP cells were also cultured in the presence of JQ1(+) or JQ1(−) (1 μM) and different amount of HIV-1 Tat (0-32 μg/ml). […] FIG. 2E provides dot plots of the experiments.
(§4) Next, the effect of JQ1 on activation of the HIV LTR was tested using a latently infected Jurkat-derived cell clone, J-Lat clone A2. GFP expression in J-Lat clone A2 is induced upon reactivation with tumor necrosis factor-alpha (TNFα) or phytohaemagglutinin (PHA).

[3] = system: HIV LTR; experiment: Reactivation of the HIV LTR in latently infected J-Lat clones (GFP by flow cytometry)
Procedure: as §3, §4
To further study the mechanism of how JQ1 drives reactivation of HIV latency, HIV latently infected T-cell lines—J-Lat clones A1, A2, A7, and A72—were utilized. The effect of JQ1(+) on reactivation of HIV latency in these cell lines were confirmed. TNFα (20 ng/ml) or PHA (1.5 μg/ml) was added to cultures of J-Lat clones in the presence of 1 μM JQ1(+) or JQ1(−). After 16 hours, expression of GFP was measured by flow cytometry. […] In the presence of HIV Tat, BET antagonism enhances Tat-driven transcription of the HIV LTR in J-Lat clones A2 and A72 (FIG. 3F; underlined numbers indicate mean GFP fluorescence, non-underlined numbers indicate percent of GFP+ cells). […] Displacement of Brd4 from chromatin by JQ1(+) may cause conformational change in the chromatin, exposing NF-κb binding sites, leading to increased HIV transcription and reactivation of latency.

[4] = system: Cdk9 binding to the HIV LTR; experiment: Chromatin immunoprecipitation (ChIP) of HIV LTR DNA, Cdk9; details: CEMss LTR-GFP cells infected with HIV NL4-3, days 3 to 5, compared to JQ1(−), p<0.001
Procedure: as §1, §2

Structure (SMILES): Cc1sc2c(c1C)C(c1ccc(Cl)cc1)=N[C@@H](CC(=O)OC(C)(C)C)c1nnc(C)n1-2 [JQ1(+), tert-butyl 2-((6S)-4-(4-chlorophenyl)-2,3,9-trimethyl-6H-thieno[3,2-f][1,2,4]triazolo[4,3-a][1,4]diazepin-6-yl)acetate]
- Binding of RNA Pol II to the HIV LTR [1]: significantly increased
- GFP expression ([2]; CEMss LTR-GFP cells infected with NL43, 1 μM, compared to controls, days 0-6): higher
- TNFα-induced activation of the HIV LTR ([2]; CEMss LTR-GFP cells, 20 ng/ml TNFα, 1 μM, 1 day, absence of Tat): promotes
- Mean fluorescence intensities (MFI) of GFP ([2]; CEMss LTR-GFP cells, 1 μM, with 8, 16 or 32 μg/ml HIV-1 Tat): dramatically enhanced
- Amount sufficient to dramatically increase Tat-driven HIV-1 transcription (GFP expression) ([2]; NL43 infected CEMss LTR-GFP cells): 0.25 µM
- GFP expression (% positive cells and mean fluorescence intensity) ([3]; J-Lat clone A2, with TNFα or PHA, 0.5 μM, 16 hours, versus JQ1(−) control): higher
- Tat-driven transcription of the HIV LTR (GFP) ([3]; J-Lat clones A2 and A72, HIV Tat protein 50 μg/ml, 16-18 hours): enhances
- GFP expression with TNFα ([3]; J-Lat clones A72 and A2, TNFα 20 ng/ml plus compound 1 μM): dramatically enhanced
- Percent of cells expressing GFP ([3]; J-Lat clones, compound alone, 1 μM, 16-18 hours): increased
- Binding of Cdk9 to the HIV LTR [4]: significantly increased
